Results on 6 compounds are retold here after patent US20250064781A1, “METHODS OF TREATING, AMELIORATING, AND/OR PREVENTING STRESS-RELATED DISORDER” (Yale University, priority 2021, published 2025).

The target in assay [1] is T1, α1D-adrenergic receptor subtype (α1D-AR) (Homo sapiens, UniProt P25100).
T1 sequence (P25100 1-572): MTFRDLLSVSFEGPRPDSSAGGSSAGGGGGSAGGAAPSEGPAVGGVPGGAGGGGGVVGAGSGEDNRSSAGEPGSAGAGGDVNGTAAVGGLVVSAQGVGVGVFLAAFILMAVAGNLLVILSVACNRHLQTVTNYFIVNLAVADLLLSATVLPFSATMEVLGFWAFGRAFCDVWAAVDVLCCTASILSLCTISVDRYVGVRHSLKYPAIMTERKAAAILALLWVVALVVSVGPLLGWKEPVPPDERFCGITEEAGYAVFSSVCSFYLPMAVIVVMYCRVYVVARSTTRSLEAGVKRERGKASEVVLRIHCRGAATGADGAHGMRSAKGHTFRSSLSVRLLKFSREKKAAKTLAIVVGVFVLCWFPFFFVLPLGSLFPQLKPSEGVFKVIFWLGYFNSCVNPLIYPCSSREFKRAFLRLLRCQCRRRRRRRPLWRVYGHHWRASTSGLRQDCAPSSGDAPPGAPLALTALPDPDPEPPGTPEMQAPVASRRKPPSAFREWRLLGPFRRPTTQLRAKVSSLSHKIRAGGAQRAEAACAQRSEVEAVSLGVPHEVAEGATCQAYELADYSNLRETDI
The conditions noted are these: cited from earlier work.

Assay [2] deals with T2, α1A-adrenergic receptor subtype (α1A-AR) (Homo sapiens, UniProt P35348).
T2 sequence (P35348 1-466): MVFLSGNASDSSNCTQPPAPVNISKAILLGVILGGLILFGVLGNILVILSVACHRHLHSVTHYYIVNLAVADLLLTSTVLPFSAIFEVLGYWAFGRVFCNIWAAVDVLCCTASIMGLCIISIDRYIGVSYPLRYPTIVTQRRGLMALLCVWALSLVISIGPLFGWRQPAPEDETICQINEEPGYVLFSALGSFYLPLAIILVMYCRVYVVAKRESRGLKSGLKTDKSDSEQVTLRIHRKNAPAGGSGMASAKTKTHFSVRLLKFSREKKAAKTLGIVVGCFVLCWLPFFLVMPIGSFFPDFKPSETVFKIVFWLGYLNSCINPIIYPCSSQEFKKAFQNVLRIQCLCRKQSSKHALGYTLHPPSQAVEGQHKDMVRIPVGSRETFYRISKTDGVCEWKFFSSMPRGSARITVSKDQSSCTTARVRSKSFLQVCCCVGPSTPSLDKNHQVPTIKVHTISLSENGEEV
The settings on record: Kenny et al., cited from earlier work; for pKi for α1A-AR: cloned human receptor, Br J Pharmacol. 1996; for α1-adrenoceptor subtype preference (in words): as previously reported.

Assay [3] concerns rhesus monkeys performing a spatial working memory task. The assay is described as follows: spatial working memory task (oculomotor delayed response, ODR) in monkeys exposed to stress. The settings on record: for performance (percent correct) in spatial working memory task under stress / performance in spatial working memory task under stress: versus VEH+STRESS; for effect on stress-induced prefrontal deficits: rhesus monkeys, dose not stated; for performance in spatial working memory task under stress: FIGS. 3 and 4, 0.1 mg/kg pretreatment before the stressor. The class given is in vivo, Rhesus monkeys (Macaca mulatta). As for the experimental part:
Rhesus monkeys (Macaca mulatta) exposed to stress or vehicle and administered with RS17053 (“RS17”) or vehicle (“VEH”) (FIG. 1) or administered with silodosin (“SIL”) or vehicle (“VEH”) were subjected to the oculomotor delayed response (ODR) tasks similar to those as described previously (Datta et al., J Neurosci. 2019 Apr. 3;39(14):2722-2734, the entirety of the journal article is hereby incorporated herein by reference). Specifically, the experiments were performed as the follows:
The monkeys were seated in primate chairs with their heads fixed and faced a 27-inch computer monitor 30 inches in front of them. The monkeys' eye positions were monitored with the ISCAN Eye Movement Monitoring System. The monkeys were pretrained on the visuospatial ODRtask, which required the subject to make a memory-guided saccade to a remembered visuospatial target. The ODR task was generated by the PICTO system (custom-designed, Windows-based data acquisition software). A central small white circle was illuminated on the computer monitor, which served as the fixation target. To initiate a trial, the animal fixated this central target and maintained fixation for 0.5 s (fixation period), whereupon a cue (the same sized white circle) was illuminated for a period of 0.5 s (cue period) at 1 of 8 peripheral targets located at an eccentricity of 13° with respect to the fixation spot. After the cue was extinguished, a 2.5 s delay period followed. The subject was required to maintain central fixation throughout both the cue presentation and the delay period. At the end of the delay, the fixation spot was extinguished, which instructed the monkey to make a memory-guided saccade to the location where the cue had been shown before the delay period. A trial was considered successful if the subject's response was completed within 0.5 s of the offset of the fixation spot and was within 2° around the correct cue location. The subject was rewarded with fruit juice immediately after every successful response. The position of the stimulus was randomized over trials such that it had to be remembered on a triα1-by-trial basis. The intertrial intervals (ITIs) were at least 3 s. The subject performed 1000-1500 trials per session.

In assay [4] the target is T3, α1B-adrenergic receptor subtype (α1B-AR) (Homo sapiens, UniProt P35368).
T3 sequence (P35368 1-520): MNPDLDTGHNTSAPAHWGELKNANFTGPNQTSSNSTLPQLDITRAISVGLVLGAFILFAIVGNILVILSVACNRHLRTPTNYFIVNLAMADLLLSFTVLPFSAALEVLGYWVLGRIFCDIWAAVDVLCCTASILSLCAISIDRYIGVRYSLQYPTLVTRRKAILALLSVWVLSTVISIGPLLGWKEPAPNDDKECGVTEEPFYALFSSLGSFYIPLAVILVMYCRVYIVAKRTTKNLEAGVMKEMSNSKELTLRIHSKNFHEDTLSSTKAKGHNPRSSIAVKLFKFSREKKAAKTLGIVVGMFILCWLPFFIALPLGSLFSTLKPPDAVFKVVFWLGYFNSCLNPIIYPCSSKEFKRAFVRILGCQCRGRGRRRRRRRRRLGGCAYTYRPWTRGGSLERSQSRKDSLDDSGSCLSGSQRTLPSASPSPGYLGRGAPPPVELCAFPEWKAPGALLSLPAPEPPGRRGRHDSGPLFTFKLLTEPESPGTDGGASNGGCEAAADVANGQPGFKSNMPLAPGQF
The settings on record: cited from earlier work.

The target of assay [5] is T2, α1A-adrenergic receptor subtype (α1A-AR). The settings on record: concluded from the Kenny et al. pKi values.
[6] abbreviates: cloned human receptor, Kenny et al., Br J Pharmacol. 1996.
Setting [7] is: Williams et al. Br J Pharmacol. 1999.
Where [8] appears, read: CHMP assessment report for Silodyx.

“Also recorded” adds a separate entry of the source. Where a name gives a salt, the structure may show the parent alone. Read-outs that look alike come from different tables or passages of the source.

In the case of “1-(4-amino-6,7-dimethoxy-2-quinazolinyl)-4-[[2-methoxy-6-(1-methylethyl)phenoxy]acetyl]piperazine [Rec 15/2739]”, in assay [1] (setting [6]), the “pKi for α1D-AR” value is given as 8.6±0.07. For the same compound, in assay [2], the “pKi for α1A-AR” value is listed as 9.0±0.07.

`CC(C)(Cc1c[nH]c2ccc(Cl)cc12)NCCOc1ccccc1OCC1CC1` [RS17053, N-[2-(2-cyclopropylmethoxyphenoxy)ethyl]-5-chloro-α,α-dimethyl-1H-indole-3-ethanamine]: the “pKi for α1D-AR” value in assay [1] (setting [6]) was 7.1±0.09. Further, the “performance (percent correct) in spatial working memory task under stress” value in assay [3] (FIG. 1, pretreatment 0.1 mg/kg-1 mg/kg before the stressor) is recorded as “protected from stress exposure”. Besides, the “performance (percent correct) in spatial working memory task under stress” value in assay [3] (FIG. 2, low dose 0.01 mg/kg pretreatment before the stressor) was “blocked the stress-induced prefrontal deficits; also recorded: protected from stress exposure”. The “effect on spatial working memory performance without stress” value in assay [3] (monkeys not subjected to stress, VEH+VEH vs. RS17+VEH) is “no significant effect”. Also, the “effect on stress-induced prefrontal deficits” value in assay [3] is listed as “completely blocked the stress-induced prefrontal deficits”. The “pKi for α1B-AR” value in assay [4] (setting [6]) is reported as 7.3±0.09. Moreover, in assay [2], the “α1-adrenoceptor subtype preference (in words)” value is on record as “strong preference for α1A-AR” and the “pKi for α1A-AR” value was 8.6±0.09.

For the compound `Cc1c[nH]c(=O)n(CCCN2CCN(c3ccccc3OCC(F)(F)F)CC2)c1=O` [RS 100329 hydrochloride, 5-Methyl-3-[3-[3-[4-[2-(2,2,2,-trifluroethoxy)phenyl]-1-piperazinyl]propyl]-2,4-(1H,3H)-pyrimidinedione hydrochloride], the “selectivity for α1A-AR over α1D-AR” value in assay [1] (setting [7]) is listed as 50 fold. For the same compound, the “selectivity for α1A-AR over α1B-AR” value in assay [4] (setting [7]) is on record as 126 fold.

With `COc1cc2nc(N3CCN(C(=O)C4COc5ccccc5O4)CC3)nc(N)c2cc1OC` (centres unmarked) [doxazosin], in assay [5], the “α1-adrenoceptor subtype preference (in words)” value is on record as “has a preference for the α1B subtype, rather than the α1A subtype”.

As to `C[C@H](Cc1cc2c(c(C(N)=O)c1)N(CCCO)CC2)NCCOc1ccccc1OCC(F)(F)F` [silodosin], the “pKi for α1D-AR” value in assay [1] (setting [8]) is 8.66. Moreover, in assay [3], the “performance in spatial working memory task under stress” value was “protected from stress exposure” and the “effect on stress-induced prefrontal deficits” value is recorded as “completely blocked the stress-induced prefrontal deficits”. Besides, the “pKi for α1B-AR” value in assay [4] (setting [8]) is 8.19.

`CCOc1ccccc1OCCNC(C)Cc1ccc(OC)c(S(N)(=O)=O)c1` (centres unmarked) [tamsulosin, 5-(2-{[2-(2-Ethoxyphenoxy)ethyl]amino}propyl)-2-methoxybenzene-1-sulfonamide]: the “pKi for α1D-AR” value in assay [1] (setting [6]) is recorded as 8.1±0.04. Also, in assay [3], the “performance in spatial working memory task under stress” value is “protected from stress exposure”. For the same compound, the “effect on stress-induced prefrontal deficits” value was “effective for treating disorders consequent of stress” in assay [3] and “completely blocked the stress-induced prefrontal deficits” in assay [3] (listed as tamulosin). In addition, in assay [4] (setting [6]), the “pKi for α1B-AR” value is 7.0±0.08. Also, the “α1-adrenoceptor subtype preference (in words)” value in assay [2] is “preference for α1A-AR and α1D-AR over α1B-AR”.
